The values below come from patent US4600772A, “Cephalosporin antibiotics” (Glaxo Group Limited, priority 1978, dated 1986).

Some results are limits rather than exact numbers.

The term LD50 denotes the dose at which mortality reaches 50%. Lower therefore signals greater toxicity.

One data set can be described thus: Nephrotoxicity in rats. Type of data set: in vivo. The following applies: dosages of 2.0 g/kg.
For data set [1] the following is noted: in vivo.
Another data set can be described thus: Bactericidal action. Type of data set: cell-based. The following applies: at concentrations close to the minimum inhibitory concentration.
Data set [2] has as its system strains of Pseudomonas organisms. Put plainly: Antibacterial activity against strains of Pseudomonas organisms. Type of data set: cell-based. The following applies: e.g. strains of Pseudomonas aeruginosa.
The nature of data set [3]: Effect of human serum on antibacterial properties. Type of data set: cell-based.
The next data set deals with gram-negative bacteria. Put plainly: Experimental infections in mice with gram-negative bacteria. Type of data set: in vivo.
The test system of another data set is Pseudomonas aeruginosa. As to the kind of experiment: Experimental infections in mice with Pseudomonas aeruginosa. Format: in vivo.
Data set [4] in a line: Effect of increased inocula. Type of data set: cell-based.
Data set [5] relates to wide range of commonly encountered pathogenic organisms. Put plainly: Broad spectrum / general antibiotic activity. Type of data set: cell-based.
A short description of data set [6]: Distribution in small rodents after subcutaneous injection.
The conditions of data set [7]: in vivo. The source holds these as a separate data set.
Data set [8] is described as follows: Acute toxicity tests in mice. The following applies: mouse, in vivo.

For the compound `CC(C)(O/N=C(\C(=O)N[C@@H]1C(=O)N2C(C(=O)[O-])=C(C[n+]3ccccc3)CS[C@H]12)c1csc(N)n1)C(=O)O` [compound of formula (Ib), (6R,7R)-7-[(Z)-2-(2-aminothiazol-4-yl)-2-(2-carboxyprop-2-oxyimino)acetamido]-3-(1-pyridiniummethyl)-ceph-3-em-4-carboxylate], the nephrotoxicity entry in “Nephrotoxicity in rats” is given as “No nephrotoxicity was observed”. Moreover, the “distribution in the body” value in data set [1] is “well distributed”. Moreover, in “Bactericidal action”, the bactericidal action result is “rapidly bactericidal”. For the same compound, the “activity against strains of Pseudomonas organisms” value in data set [2] is given as “excellent activity”. Besides, in [3], the “impairment of antibacterial properties by human serum” value was “not impaired by human serum”. Also, the “treatment of experimental infections in mice with gram-negative bacteria” value in the data set with gram-negative bacteria was “successfully treated”. Moreover, the “protection against strains of Pseudomonas aeruginosa” value in the data set with Pseudomonas aeruginosa is on record as “excellent protection”. Further, the “protection compared with an aminoglycoside such as amikacin” value with Pseudomonas aeruginosa (versus amikacin) was “comparable”. Also, the “effect of increased inocula” value in data set [4] is “low”. For the same compound, the “antibiotic activity / general antibiotic properties” value in data set [5] is recorded as “possesses to an outstanding extent the general antibiotic properties”. In addition, the therapeutic levels result in data set [6] is listed as “useful therapeutic levels”. In addition, the serum levels entry in data set [7] is “high and long lasting serum levels”. Further, in data set [8], the median lethal dose (LD50) is over 1000 mg/kg.
With `Nc1nc(/C(=N/OC2(C(=O)O)CCC2)C(=O)N[C@@H]2C(=O)N3C(C(=O)[O-])=C(C[n+]4ccccc4)CS[C@H]23)cs1` [(6R,7R)-7-[(Z)-2-(2-aminothiazol-4-yl)-2-(1-carboxycyclobut-1-oxyimino)acetamido]-3-(1-pyridiniummethyl)-ceph-3-em-4-carboxylate], the “properties compared with the compound of formula (Ib)” value in data set [5] was “not dissimilar properties”.
